# Test results from US20030103900A1, “Use of disease-associated organisms” (priority 2001, published 2003).
# Test system: non-Hodgkins lymphoma
# Assay: broad spectrum antibiotic cover in a non-Hodgkins lymphoma patient with mixed bacterial pneumonia
# Assay type: in vivo, human
# Settings: given together: Penicillin 1 million units three times a day i.m., chloramphenicol 1.25 g three times a day i.m., flagyl 400 mg three times a day orally; following one week
# Source text: If, on the other hand, a disease-associated organism is found within the body of a patient, which organism is classified as beneficial regarding a targeted disease (i.e., the activity of the organism is either causative or synergistic toward the disease), a therapeutic agent which is antagonistic toward such beneficial organism may be administered to the patient for aiding the patient's immune system in fighting against such causative or synergistic organism. Organisms have often been reported to exist in cancer patients both in tumor biopsies and in overt disease, in the treatment of a non-Hodgkins lymphoma patient suffering from mixed bacterial pneumonia, inventor prescribed broad spectrum antibiotic cover-Penicillin 1 million units three times a day, chloramphenicol 1.25 g three times a day, and flagyl 400 mg three times a day; the first two by intramuscular route and the flagyl orally.
row,Compound,change of cancerous lymph nodes
1,O=C(N[C@H](CO)[C@H](O)c1ccc([N+](=O)[O-])cc1)C(Cl)Cl [chloramphenicol],cancerous lymph nodes shrank and softened
2,Cc1ncc([N+](=O)[O-])n1CCO [flagyl],cancerous lymph nodes shrank and softened
3,Penicillin,cancerous lymph nodes shrank and softened
